Test results published in patent US4614741A, “Depot antiinflammatory agents” (priority 1983, dated 1986).

What was measured:
[1] = test system: carrageenan-induced oedema of the rat paw; assay: Inhibition of carrageenan-induced oedema of the rat paw after i.m. depot administration; type: in vivo, rat (male, Bor:WISW (SPF-Cpb))
Description: The antioedemic and analgesic effect of the test substances after i.m. administration of an appropriate depot formulation was determined using the carrageenan-induced oedema of the rat paw or using the Randall-Selittotest [Arch. int. Pharmacodyn.
The tests were carried out with male rats [strain: Bor:WISW (SPF-Cpb), weight about 200 g]. The animals receive a single i.m. administration of a depot product, and the antiinflammatory effect was checked on subsequent days by inducing oedema with carrageenan.
The paw volumes were measured by the method of F. Kemper and G. Ameln [Z. ges. exp.
Various doses were administered in a constant volume of 0.03 ml administered per rat (see Table).

[2] = humans; p.o. versus i.m. in aqueous solution; cited from earlier work

SMILES: COc1ccc2c(c1)c(CC(=O)O)c(C)n2C(=O)c1ccc(Cl)cc1 [compound 18, 1-(p-Chlorobenzoyl)-5-methoxy-2-methylindole-3-acetic acid]
- % inhibition of oedema, 2nd day after inj. ([1]; 10.0 mg/kg, solution): 58.2%
- % inhibition of oedema, 2nd day after inj. ([1]; 10.0 mg/kg, suspension): 58.2%
- % inhibition of oedema, 4th day after inj. ([1]; 10.0 mg/kg, solution): 29.5%
- % inhibition of oedema, 4th day after inj. ([1]; 10.0 mg/kg, suspension): 29.5%

SMILES: CC(C(=O)O)c1cccc(C(=O)c2ccccc2)c1 (centres unmarked) [compound 13, 2-(m-Benzoylphenyl)-propionic acid]
- maximum level in the plasma [2]: nor do the maximum level in the plasma, or the plasma and renal clearance differ

SMILES: CN1C(C(=O)Nc2ccccn2)=C(O)c2ccccc2S1(=O)=O [compound 22, 4-Hydroxy-2-methyl-N--2-pyridinyl-2H--1,2-benzothiazine-3-carboxamide 1,1-dioxide]
- % inhibition of oedema, 2nd day after inj. ([1]; 0.6 mg/kg, solution): 33.2%
- % inhibition of oedema, 2nd day after inj. ([1]; 0.6 mg/kg, suspension): 33%
- % inhibition of oedema, 4th day after inj. ([1]; 0.6 mg/kg, solution): 39.3%
- % inhibition of oedema, 4th day after inj. ([1]; 0.6 mg/kg, suspension): 39%

SMILES: COc1ccc2cc([C@H](C)C(=O)O)ccc2c1 [compound 10, D-2-(6-Methoxy-2-naphthyl)propionic acid]
- % inhibition of oedema, 2nd day after inj. ([1]; 2.5 mg/kg, suspension): 42.8%
- % inhibition of oedema, 4th day after inj. ([1]; 2.5 mg/kg, suspension): 22.3%

SMILES: O=C(O)c1cc(-c2ccc(F)cc2F)ccc1O [compound 3, 2',4'-Difluoro-4-hydroxy-3-biphenyl-carboxylic acid]
- % inhibition of oedema, 2nd day after inj. ([1]; 5 mg/kg, suspension): 26%
- % inhibition of oedema, 4th day after inj. ([1]; 5 mg/kg, suspension): 13%

SMILES: CN1C(C(=O)Nc2nccs2)=C(O)c2ccccc2S1(=O)=O [compound 21, 4-Hydroxy-2-methyl-N--2-thiazolyl-2H--1,2-benzothiazine-3-carboxamide 1,1-dioxide]
- % inhibition of oedema, 2nd day after inj. ([1]; 15 mg/kg, suspension): 42.9%
- % inhibition of oedema, 4th day after inj. ([1]; 15 mg/kg, suspension): 30.4%

SMILES: CC(C)Cc1ccc(C(C)C(=O)O)cc1 (centres unmarked) [compound 11, 2-(p-Isobutylphenyl)-propionic acid]
- % inhibition of oedema, 2nd day after inj. ([1]; 13 mg/kg, suspension): 40%
- % inhibition of oedema, 4th day after inj. ([1]; 13 mg/kg, suspension): 45%
